Measured values taken from PMC6597265 (ACS chemical neuroscience, 2019).

Experiments:
native NMDA receptors = assay type: binding; settings: native iGluRs, rat synaptosomes
GluN1/GluN2A [1] = biological target: GluN1/GluN2A (Rattus norvegicus, UniProt P35439+Q00959); assay type: cell-based
GluN1/GluN2A [2] = biological target: GluN1/GluN2A (Rattus norvegicus, UniProt Q00959); assay type: cell-based; settings: from Ki values
GluN1/GluN2B = GluN1/GluN2B (Rattus norvegicus, UniProt P35439+Q00960); assay type: cell-based
GluN1/GluN2C = GluN1/GluN2C (Rattus norvegicus, UniProt P35439+Q00961); assay type: cell-based
GluN1/GluN2D = GluN1/GluN2D (Rattus norvegicus, UniProt P35439+Q62645); assay type: cell-based
GluN1/GluN2D, sequence (Q62645 28-1323, other chains not shown): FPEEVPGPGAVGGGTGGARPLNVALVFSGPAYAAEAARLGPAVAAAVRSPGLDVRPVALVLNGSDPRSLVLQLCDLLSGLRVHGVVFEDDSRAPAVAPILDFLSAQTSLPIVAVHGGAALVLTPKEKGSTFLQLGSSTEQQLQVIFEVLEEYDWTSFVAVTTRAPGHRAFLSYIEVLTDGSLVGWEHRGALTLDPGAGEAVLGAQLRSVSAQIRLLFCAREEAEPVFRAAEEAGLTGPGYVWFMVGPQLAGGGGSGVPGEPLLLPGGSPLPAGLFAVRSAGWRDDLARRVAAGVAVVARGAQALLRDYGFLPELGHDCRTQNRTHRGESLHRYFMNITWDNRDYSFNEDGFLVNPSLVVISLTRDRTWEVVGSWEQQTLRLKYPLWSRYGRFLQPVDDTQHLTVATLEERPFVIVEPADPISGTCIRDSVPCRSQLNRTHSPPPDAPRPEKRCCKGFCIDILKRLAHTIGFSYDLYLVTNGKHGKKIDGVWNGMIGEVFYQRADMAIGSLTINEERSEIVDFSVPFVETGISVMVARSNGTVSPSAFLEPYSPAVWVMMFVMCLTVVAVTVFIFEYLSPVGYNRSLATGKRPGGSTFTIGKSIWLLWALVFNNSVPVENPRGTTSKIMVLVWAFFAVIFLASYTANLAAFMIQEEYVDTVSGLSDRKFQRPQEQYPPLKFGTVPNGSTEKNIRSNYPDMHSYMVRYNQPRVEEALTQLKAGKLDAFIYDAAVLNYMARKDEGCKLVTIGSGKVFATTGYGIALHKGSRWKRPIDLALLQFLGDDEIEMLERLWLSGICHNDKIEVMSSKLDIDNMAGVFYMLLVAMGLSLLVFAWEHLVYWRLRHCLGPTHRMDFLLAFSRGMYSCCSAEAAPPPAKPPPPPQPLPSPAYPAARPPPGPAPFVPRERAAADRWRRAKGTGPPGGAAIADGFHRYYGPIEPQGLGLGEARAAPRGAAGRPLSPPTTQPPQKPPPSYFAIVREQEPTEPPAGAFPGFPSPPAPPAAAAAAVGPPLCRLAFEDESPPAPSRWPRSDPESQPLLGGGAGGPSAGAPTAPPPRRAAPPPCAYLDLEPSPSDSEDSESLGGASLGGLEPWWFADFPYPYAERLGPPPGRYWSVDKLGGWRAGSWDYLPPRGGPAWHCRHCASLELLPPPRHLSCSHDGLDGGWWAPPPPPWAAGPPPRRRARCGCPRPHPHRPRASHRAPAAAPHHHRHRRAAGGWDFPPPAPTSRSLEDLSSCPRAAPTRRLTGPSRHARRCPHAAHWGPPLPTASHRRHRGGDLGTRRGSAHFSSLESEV

GluN1/GluN2A (Rattus norvegicus, UniProt Q00959), sequence (Q00959 23-1464, other chains not shown): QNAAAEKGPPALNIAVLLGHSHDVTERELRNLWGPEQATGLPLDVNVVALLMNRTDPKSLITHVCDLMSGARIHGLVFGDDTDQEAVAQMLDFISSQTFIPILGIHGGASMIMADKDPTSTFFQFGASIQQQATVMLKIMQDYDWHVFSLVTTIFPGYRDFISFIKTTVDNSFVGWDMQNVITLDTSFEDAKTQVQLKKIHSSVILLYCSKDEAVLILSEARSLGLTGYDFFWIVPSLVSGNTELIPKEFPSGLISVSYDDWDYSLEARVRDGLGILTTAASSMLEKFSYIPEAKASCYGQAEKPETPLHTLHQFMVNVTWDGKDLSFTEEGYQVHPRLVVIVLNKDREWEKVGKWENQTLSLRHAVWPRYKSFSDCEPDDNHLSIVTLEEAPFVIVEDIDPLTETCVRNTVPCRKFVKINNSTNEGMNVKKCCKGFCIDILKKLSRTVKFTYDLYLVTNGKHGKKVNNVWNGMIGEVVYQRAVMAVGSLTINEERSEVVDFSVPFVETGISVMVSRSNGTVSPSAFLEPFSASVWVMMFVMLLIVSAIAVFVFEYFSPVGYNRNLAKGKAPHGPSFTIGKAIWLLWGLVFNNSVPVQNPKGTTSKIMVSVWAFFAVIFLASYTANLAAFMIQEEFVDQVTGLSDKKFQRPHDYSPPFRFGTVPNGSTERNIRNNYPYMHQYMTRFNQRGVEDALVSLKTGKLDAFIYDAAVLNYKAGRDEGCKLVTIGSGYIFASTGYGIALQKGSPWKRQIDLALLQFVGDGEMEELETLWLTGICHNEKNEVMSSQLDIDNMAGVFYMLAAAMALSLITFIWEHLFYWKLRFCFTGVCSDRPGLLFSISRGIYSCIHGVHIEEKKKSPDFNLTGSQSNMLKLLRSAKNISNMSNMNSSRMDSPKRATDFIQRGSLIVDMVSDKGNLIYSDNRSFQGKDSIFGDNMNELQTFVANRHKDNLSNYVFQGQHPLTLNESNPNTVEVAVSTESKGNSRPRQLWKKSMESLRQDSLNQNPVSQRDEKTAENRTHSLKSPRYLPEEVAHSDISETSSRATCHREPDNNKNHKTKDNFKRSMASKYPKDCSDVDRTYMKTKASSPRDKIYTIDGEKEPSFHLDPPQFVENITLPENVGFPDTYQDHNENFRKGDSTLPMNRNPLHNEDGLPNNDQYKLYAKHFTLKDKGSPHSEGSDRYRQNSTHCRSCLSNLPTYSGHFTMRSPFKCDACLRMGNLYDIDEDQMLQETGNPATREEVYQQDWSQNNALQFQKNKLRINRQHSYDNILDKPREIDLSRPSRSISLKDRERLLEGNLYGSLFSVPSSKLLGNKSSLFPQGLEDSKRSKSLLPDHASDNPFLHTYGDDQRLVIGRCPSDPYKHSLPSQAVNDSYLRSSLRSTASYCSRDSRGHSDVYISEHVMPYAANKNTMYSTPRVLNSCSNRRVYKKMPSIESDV
GluN1/GluN2A (Rattus norvegicus, UniProt P35439+Q00959), sequence (Q00959 23-1464, other chains not shown): as above

**Q.** For `Cl.O=C(O)C(Cc1nnn[nH]1)[C@@H]1CCN[C@H]1C(=O)O` (relative stereo) [3q-s3,4, trans-3-(1-Carboxy-2-(1H-tetrazol-5-yl)ethyl)pyrrolidine-2-carboxylic Acid Hydrochloride], which “pKi NMDA (mean ± SEM, in brackets)” value (native NMDA receptors) is on record?
**A.** 6.61 ± 0.07

**Q.** What about the Ki (GluN1/GluN2A [1]) of the same molecule?
**A.** 0.61 ± 0.02 µM

**Q.** What about the “fold preference as antagonist for GluN1/GluN2A over GluN1/GluN2B-D” value (GluN1/GluN2A [2]) of the same molecule?
**A.** 4.4−100 fold

**Q.** And the Ki (GluN1/GluN2B)?
**A.** 2.7 ± 0.1 µM

**Q.** And the Ki (GluN1/GluN2C)?
**A.** 12 ± 1 µM

**Q.** And the Ki (GluN1/GluN2D)?
**A.** 62 ± 9 µM
